According to US11065269B1, “Method of using astaxanthin for the treatment of diseases, and more particularly, the treatment of cancer” (priority 2018, dated 2021):

Key:
[1] = increasing astaxanthin levels in the diet (experiments conducted with the invention); assay type: in vivo
Protocol: In experiments conducted with the present invention, it is been shown that increasing astaxanthin levels in the diet can be used as a pre-cancer, cancer and anti-inflammatory prophylactic at levels up to 400 mg per day.

[2] = relative to betacarotene; cited from earlier work
[3] = cited from earlier work
[4] = oral; cited from earlier work

For `CC1=C(/C=C/C(C)=C/C=C/C(C)=C/C=C/C=C(C)/C=C/C=C(C)/C=C/C2=C(C)C(=O)[C@@H](O)CC2(C)C)C(C)(C)C[C@H](O)C1=O` [astaxanthin], the side effects ([1]; dietary levels up to 400 mg per day) was “No discernible side effects”, the “side effects or skin color changes” value ([1]; treatment of greater than 50 mg per day) was “No side effects or skin color changes were observed” and the feces colour ([1]; up to 400 mg per day, from unabsorbed astaxanthin) was “some decolorization of feces”. The “anti-inflammatory effect and pain reduction associated with arthritis” value ([1]; within four weeks of treatment of greater than 50 mg per day) was “Anti-inflammatory and pain reduction associated with arthritis were noted”, the “times more reactive as an antioxidant than betacarotene” value [2] was 400 times and the “singlet oxygen quenching, times stronger than CoQ10” value ([3]; relative to CoQ10) was 800 times. For the same molecule, the “singlet oxygen quenching, times stronger than vitamin C” value ([3]; relative to vitamin C) was 6000 times, the “singlet oxygen quenching, times stronger than vitamin E” value ([3]; relative to vitamin E) was 550 times and the toxic side effects [4] was “No toxic side effects have been observed”.
